Test results published in patent US20080069860A1, “HYPERPHOSPHATEMIA IN DOMESTIC ANIMALS: COMPOSITIONS AND METHODS OF TREATMENT” (priority 2005, published 2008).

Assays:
beagle dogs = assay: Dog study, urine phosphate excretion after oral capsules; assay type: in vivo; details: 2250 mg elemental lanthanum twice daily, urine approximately 24 hours after dosing
[1] = system: Sprague-Dawley rats underwent 5/6th nephrectomy; assay: In vivo study in 5/6th nephrectomy rats, urine phosphorus excretion; details: 314 mg elemental lanthanum/kg/day oral, once daily for 14 days, compared to untreated rats
Procedure: Groups of six adult Sprague-Dawley rats underwent 5/6th nephrectomy in two stages over a period of 2 weeks and were then allowed to recover for a further two weeks prior to being randomized for treatment. The groups received vehicle (0.5% w/v carboxymethyl cellulose), or lanthanum oxycarbonate suspended in vehicle, once daily for 14 days by […] (10 ml/kg/day). The dose delivered 314 mg elemental lanthanum/kg/day. Dosing was carried out immediately before the dark (feeding) cycle on each day. Urine samples (24 hours) were collected prior to surgery, prior to the commencement of treatment, and twice weekly during the treatment period. Volume and phosphorus concentration were measured.
Feeding—During the acclimatization and surgery period, the animals were given Teklad phosphate sufficient diet (0.5% Ca, 0.3%P; Teklad No. TD85343), ad libitum. At the beginning of the treatment period, animals were pair fed based upon the average food consumption of the vehicle-treated animals the previous week.
5/6 Nephrectomy—After one week of acclimatization, all animals were subjected to 5/6 nephrectomy surgery. The surgery was performed in two stages. First, the two lower branches of the left renal artery were ligated. One week later, a right nephrectomy was performed. […]

dogs = assay: Palatability study in dogs; assay type: in vivo; details: 9 dogs, during hours post meal
Description: Lanthanum oxycarbonate was mixed with wet and dry dog food and presented to 9 different dogs, almost all over 40 pounds.

Molecule | urine phosphate excretion, a marker of phosphorous binding (beagle dogs) | phosphorus excretion (urine), a marker of dietary phosphorus binding [1] | signs of nausea, vomiting, bloating or flatus (dogs)
O=C([O-])[O-].[La+3].[OH-] [compound A, LaCO3OH] | reduction of urine phosphate excretion | – | –
O=C([O-])[O-].[La+3].[La+3].[O-2].[O-2] [compound B, La2O2CO3] | reduction of urine phosphate excretion | – | –
O=C([O-])[O-].[La+3].[OH-] [lanthanum carbonate hydroxide] | – | decrease in phosphorus excretion | –
lanthanum oxycarbonate | – | decrease in phosphorus excretion | None of the dogs exhibited signs of nausea, vomiting, bloating or flatus
